Assays:
[1] = tested on: top 10 cocaine-dysregulated biological pathways in the hippocampus; assay: Biological pathway analysis (IPA) of transcriptomics, cocaine-dysregulated pathways; assay type: in vivo, Male Wister rats; conditions: single treatment
Method: Animals were then randomly allocated to one of five groups and received a single i.p. injection of one of vehicle, 5 mg/kg 5-Meo-DMT, 0.14 mg/kg LSD, 1 mg/kg psilocybin, or 1 mg/kg DOI. On day 15, animals were euthanised and the hippocampus blunt dissected, snap frozen in liquid nitrogen and stored at −80° C. until further processing.
Subsequent pathway analyses were done using Ingenuity Pathway Analysis (IPA). Analysis settings for IPA included the Ingenuity Knowledge Base (Genes Only), direct and indirect relationships, and endogenous chemicals of the previously filtered list of differentially expressed genes. IPA was filtered to only consider molecules where the species were human, rat, or mouse and the confidence can be experimentally observed. Canonical pathways were utilized in pathway analysis, where the spreadsheet organized the values of significance to −log(p-value) and the rate of regulation to the z-score. Negative z-score values indicate downregulation and positive values indicate upregulation.

[2] = i.p. administration, rodents; cited from earlier work
[3] = cited from earlier work
[4] = biological target: 5-HT2AR (Rattus norvegicus, UniProt P14842); conditions: read-out: Ki for the 5-HT2AR; non-canonical signaling, liberation of arachidonic acid; cited from earlier work
[5] = biological target: 5-HT2Rs; conditions: canonical signaling activity measured; read-out: affinity for the 5-HT2Rs; cited from earlier work
[6] = tested on: rats; assay: Acute adverse effects (serotonin-associated toxicity) in the behaviour study; assay type: in vivo
Method: In this instance the animals were 9 weeks old at the initiation of drug exposures and we selected just the high (20 mg/kg) dose of 5-MeO-DMT from the molecular study. […] Due to the number of behavioral paradigms to be completed by each animal we divided the study into two cohorts staggered by two weeks with 8 animals coming from each cohort to make up the 16 animals for each treatment group. 23 hours after 5-MeO-DMT administration the animals were introduced to the open field arena where they were allowed to freely explore the area for 5 mins. Following the open field test (OFT) animals were returned to their home cage for 2 hours before beginning either the elevated plus maze (EPM) or pre-pulse inhibition (PPI) testing. 24 hours after completing the OFT animals were returned to the chamber for the first session in novel object (NO1) testing. The animals were returned to their home cage for 2 hours before beginning the EPM or PPI test. 24 hours after NO1 the animals returned to the open field chamber for the second session in novel object (N02) testing. After completing N02 animals were returned to their home cage for 2 hours before they underwent the forced swim test (FST) pre-test. 24 hours later the animals were returned to the FS cylinders for the FST. Upon completion of the FST all animals were euthanized. A timeline of this experimental cohort is described in FIG. 8A.
Within 5-10 mins of administration a series of symptoms emerged that we believed were indicative of acute serotonin-associated toxicity, usually termed “serotonin syndrome” as a result of excessive serotonergic activity (Haberzettl et al. 2013). These symptoms overlap with those induced by acute psychedelic administration including head twitches, tremor, hind limb abduction, Straub tail, head shaking, head weaving and flat/low body posture however in this instance symptoms progressed rapidly to include hyperthermia, tachycardia, trembling and seizures. […] In total 7 of the 16 animals that were administered 20 mg/kg 5-MeO-DMT died or were euthanized for ethical reasons. […] As the study was divided into two cohorts we consulted with the designated vet in BMF as to what amendments should be made to our study protocol to reduce the risk of harm to animals in cohort 2 and a number of changes were implemented to the study design as outlined below.
The experiment was conducted as described for cohort 1 for the first 13 days of injections. There are a number of notable differences in experimental procedures between the two cohorts of animals to be highlighted. […] Finally, the dose of 5-MeO-DMT was reduced to 10 mg/kg. The order and timing of all the behavioral paradigms were kept constant between the cohorts. A timeline of this experimental cohort is described in FIG. 8B. Additionally, 5-MeO-DMT administrations were staggered so animals could be observed for the duration of acute drug effects and to ensure recovery prior to the next animal being injected. The typical symptoms of psychedelic drug administration outlined above were reproduced in all animals administered 5-MeO-DMT.

5-HT2AR, sequence (P14842 whole entry): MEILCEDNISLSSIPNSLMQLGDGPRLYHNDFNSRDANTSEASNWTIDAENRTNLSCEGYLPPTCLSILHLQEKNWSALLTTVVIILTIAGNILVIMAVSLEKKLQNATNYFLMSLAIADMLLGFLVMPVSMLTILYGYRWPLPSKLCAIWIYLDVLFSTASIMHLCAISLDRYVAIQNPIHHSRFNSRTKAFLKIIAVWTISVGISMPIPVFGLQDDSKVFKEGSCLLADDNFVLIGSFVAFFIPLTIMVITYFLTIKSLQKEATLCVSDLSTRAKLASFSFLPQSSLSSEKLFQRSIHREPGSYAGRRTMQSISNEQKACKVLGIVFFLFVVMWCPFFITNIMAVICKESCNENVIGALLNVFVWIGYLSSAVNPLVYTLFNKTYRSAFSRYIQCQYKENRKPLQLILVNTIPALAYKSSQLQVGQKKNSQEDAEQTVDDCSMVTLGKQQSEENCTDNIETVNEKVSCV

## COc1ccc2[nH]cc(CCN(C)C)c2c1 [5-MeO-DMT, 5-methoxy-N,N-dimethyltryptamine]
[1]
  number of the top 10 dysregulated pathways corrected: 9 pathways
  top 10 cocaine-dysregulated biological pathways corrected: 90%
[2]
  terminal half-life (t½): 12 to 19 min
  time of maximal drug concentration: 5 to 7 min
[3]; rat brain regions
  blood-brain barrier passage: readily crosses the blood-brain barrier
[3]; throughout the brain
  brain drug concentrations with increase in dose: increased non-proportionally
[4]
  Ki: 190 nM
[5]
  Ki: > 1000 nM
[6]; cohort 1 (20 mg/kg 5-MeO-DMT)
  time to emergence of symptoms indicative of acute serotonin-associated toxicity: 5 to 10 min
[6]; cohort 1, 20 mg/kg 5-MeO-DMT, 1 h after last saline or cocaine
  adverse effects after administration: strong adverse effects in a significant proportion of animals
[6]; cohort 1, all animals administered 20 mg/kg 5-MeO-DMT
  animals that died or were euthanized for ethical reasons: 7 of the 16
[6]; cohort 1, cocaine+5-MeO-DMT (20 mg/kg) group
  animals that died or were euthanized: 5 animals
[6]; cohort 1, saline+5-MeO-DMT (20 mg/kg) group
  animals that died or were euthanized: 2 animals
[6]; cohort 2, saline+5-MeO-DMT (10 mg/kg) group
  animals euthanized for early signs of serotonin-associated toxicity: 2 animals
